In ChEMBL document CHEMBL1156639, “Antiprotozoal activities of heterocyclic-substituted xanthones from the marine-derived fungus Chaetomium sp” (J Nat Prod, 2008):
In brackets after ≈: the same amount, converted by molar mass.

Assays:
[1] = tested on: Trypanosoma cruzi; assay: Antiprotozoal activity against Trypanosoma cruzi Tulahuen C4 in rat L6 cells; assay type: functional, organism-based
[2] = tested on: Plasmodium falciparum; assay: Antimalarial activity against Plasmodium falciparum K1 in human erythrocytes by [3H]hypoxanthine uptake; assay type: functional, organism-based
[3] = tested on: Trypanosoma brucei rhodesiense; assay: Antiprotozoal activity against Trypanosoma brucei rhodesiense STIB900; assay type: functional, organism-based
[4] = tested on: Leishmania donovani; assay: Antiprotozoal activity against Leishmania donovani MHOM-ET-67/L82 in mouse peritoneal macrophages; assay type: functional, organism-based
[5] = tested on: L6; assay: Cytotoxicity against rat L6 cells; assay type: cell-based

Row | SMILES | IC50 [1] | IC50 [2] | IC50 [3] | IC50 [4] | IC50 [5]
1 | COc1cccc2oc3c(Cl)c(O)c([C@H]4CCC[C@@H](C)O4)c(O)c3c(=O)c12 [CHAETOXANTHONE C] | 1.5 µg/mL (≈ 3.84 µM) | 4 µg/mL (≈ 10.2 µM) | 42.6 µg/mL (≈ 109 µM) | 3.1 µg/mL (≈ 7.93 µM) | 46.7 µg/mL (≈ 119 µM)
2 | O=C(Cn1ccnc1[N+](=O)[O-])NCc1ccccc1 [BENZNIDAZOLE] | 0.317 µg/mL (≈ 1.22 µM) |  |  |  | 
3 | COc1cccc2oc3cc4c(c(O)c3c(=O)c12)C1CCCC(C)(O4)O1 (stereo unspecified) [CHAETOXANTHONE B] | 7.1 µg/mL (≈ 20 µM) | 0.5 µg/mL (≈ 1.41 µM) | 9.3 µg/mL (≈ 26.2 µM) | 3.4 µg/mL (≈ 9.59 µM) | > 90 µg/mL
4 | COc1cccc2oc3cc4c(c(O)c3c(=O)c12)[C@@H]1C[C@@H](O)C[C@](C)(O4)O1 [CHAETOXANTHONE A] | > 10 µg/mL | 3.5 µg/mL (≈ 9.45 µM) | 4.7 µg/mL (≈ 12.7 µM) | 5.3 µg/mL (≈ 14.3 µM) | 59.1 µg/mL (≈ 160 µM)
